Measurements reported in US5079257A, “Indoloquinone compounds” (priority 1986, dated 1992).
≈ marks a conversion by molar mass, not a printed value. Like-named read-outs stand apart in the source and are kept apart here.

Tests used:
MCF7 breast cancer cells = experiment: In vitro panel of human tumour lines (TNO): MCF-7; format: cell-based; conditions: about 72 hours; further: key: -: no inhibition of cell growth; +: total cell-kill
How it was run: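 Cells in Dulbecco's medium with 10% foetal calf serum were seeded 48 h, then exposed continuously to increasing compound concentrations (final ethanol <1%) for about 72 h at 37° in 10% CO2. Crystal violet staining after fixation; inhibiting concentration estimated qualitatively.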

[1] = Half-wave reduction potentials / polarography (University of Utrecht); format: physicochemical
How it was run: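 Polarographic half-wave potentials (E1/2) measured; only the first, quinone, reduction potential is reported.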

lung-NSCLC tumour line = experiment: Colony inhibition in vitro, continuous drug exposure (Freiburg); format: cell-based, human; conditions: for activity at 1 µg/mL: 1.0 μg/ml
Description: Three indoloquinones were tested at the University of Freiburg with respect to their in vitro inhibition of colony formation of the following five human tumour cell lines: lung-NSCLC, breast, renal and two colon lines.

L1210 cells [2] = experiment: L1210 activity in clonogenic assay (TNO Rijswijk); format: cell-based; conditions: Mus musculus, L1210, 192 h, read-out: ID-50 L1210, clonogenic assay
Excerpt: (§1) The indoloquinones II (formula II) have been tested in respect of their cytotoxic activity against L1210 cells and R-1 cells (Rhabdomyosarcoma Cells) in a bioliquid assay at the department of oncology of the Free University of Amsterdam (Table I). In addition to this seven compounds (E.O. 1, E.O. 2, E.O. 4, E.O. 7, E.O. 9, E.O. 16 and E.O. 17) have been tested on L1210 activity in a clonogenic assay at TNO, Rijswijk. Further, the lowest active doses of the compounds E.O. 1, E.O. 2, E.O. 4 and E.O. 9 have been determined at TNO Rijswijk, according to the method described by Lamberts et al. [Oncology, 40, 301 (1983)]. (Table II). Eight indoloquinones (E.O. 1, E.O. 2, E.O. 4, E.O. 4A, E.O. 8, E.O. 9, E.O. 33 and E.O. 35) have been tested in a panel of five human tumour lines (TNO Rijswijk; Table III). From the latter group three indoloquinones (E.O. 1, E.O. 4 and E.O. 9) have been selected for a cytotoxicity study, involving five slowly growing human tumour lines (University of Freiburg; Table IV).
The L1210 clonogenic assay used was an improved variant of the method described earlier by H. MARTIN et al. [Cancer Chemother., Rep., 51 451 (1967)] and L. M. van Putten et al. [Cancer Treat. Rep., 60, 373 (1976)] for the growth into colonies of L1210 cells in a soft agar medium. From a suspension culture ~100 L1210 Cells (0.1 ml) were plated into […] culture dishes (Falcon), containing 1 ml of soft agar growth medium and the compound to be tested in appropriate concentrations. The soft agar growth medium consisted of Dulbecco medium supplemented with 15.8% horse serum, 60 μmol 2-mercapto-ethanol, 20 mg/ml L-asparagine and 0.3% bacto agar (Difco).
The culture dishes were incubated at 37° C. in an atmosphere of 1% CO2 in humidified air for 8 days. After this period of continuous drug exposure, colonies were counted and dose-effect curves were made.

[3] = tested on: R-1 cells (Rhabdomyosarcoma Cells); experiment: R-1 activity (bioliquid assay), cytotoxicity; format: cell-based; conditions: Rhabdomyosarcoma cell
How it was run: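 Rhabdomyosarcoma R-1 cells (~10^6 per dish) in Dulbecco's medium with 10% FCS were exposed to drug solution, which was then replaced by fresh medium. Cells were trypsinized after 48 hours and counted electronically.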

L1210 cells [4] = experiment: Lowest active dose (L1210; bioliquid assay); format: cell-based; conditions: Mus musculus
Excerpt: as §1
The lowest active doses for the compounds E.O. 1, E.O. 2, E.O. 4 and E.O. 9 were determined according to the method described by Lamberts et al. [Oncology, 40, 301 (1983)]. In this method, L1210 cells were grown in a series of wells in a culture medium and in the presence of the compound to be tested, as in the determination of L1210 activity in a bioliquid assay reported above, but the compound was present in respective wells in a different concentration, the concentrations extending over an appropriate range. After a suitable incubation period, the lowest active dose for the compound in question was determined by comparing the diameter of each of the precipitation spots with that of a control containing only the culture and the cell suspension, a smaller diameter indicating growth inhibition (Table II).

[5] = Homo sapiens, 0.01 μg/ml, read-out: colony formation treated/control (T/C), Lung
[6] = Homo sapiens, 0.1 μg/ml, read-out: colony formation treated/control (T/C), Lung
[7] = Homo sapiens, read-out: colony formation treated/control (T/C), Lung
[8] = 8 days continuous exposure, TNO Rijswijk
[9] = Table I, bioliquid assay, read-out: ID-50 R-1
[10] = L1210, bioliquid assay, duplicate experiment, read-out: LAD 2 (lowest active dose)
[11] = L1210, bioliquid assay, read-out: LAD 1 (lowest active dose)

Row | Compound | in vitro activity score, MCF-7 (MCF7 breast cancer cells; 0.01 μg/ml) | in vitro activity score, MCF-7 (MCF7 breast cancer cells; 0.1 μg/ml) | in vitro activity score, MCF-7 (MCF7 breast cancer cells; 1.0 μg/ml) | in vitro activity score, MCF-7 (MCF7 breast cancer cells; 10 μg/ml) | half-wave potential E1.2, wave I ([1]; pH = 8 vs Ag/AgCl) [mV] | activity at 0.01 µg/mL (lung-NSCLC tumour line; [5]) [%] | activity at 0.1 µg/mL (lung-NSCLC tumour line; [6]) [%] | activity at 1 µg/mL (lung-NSCLC tumour line; [7]) [%] | IC50 (L1210 cells [2]; [8]) [µg/mL] | IC50 [3, 9] [µg/mL] | minimal effective concentration (L1210 cells [4]; [10]) [µg/mL] | minimal effective concentration (L1210 cells [4]; [11]) [µg/mL] | activity against the lung cell line (lung-NSCLC tumour line; 0.01 μg/ml) | also measured
1 | COC1=CC(=O)c2c(c(COC(C)=O)c(/C=C/COC(C)=O)n2C)C1=O [E.O. 1, 3-Acetoxymethyl-5-methoxy-1-methyl-2-[1H-indole-4,7-dione]prop-β-en-α-yl acetate] | - | - | - | + | -367 | 48 | 4 | 0 | 2.5 | 2.3 | 1.02 to 2.05 | 1.02 to 2.05 |  | direct current polarogram ([1]; DC-polarography): two or more reduction waves; half-wave potential E1.2, wave III ([1]; pH = 8 vs Ag/AgCl): -435 mV; half-wave potential E1.2, wave IV ([1]; pH = 8 vs Ag/AgCl): -775 mV; IC50 ([3]; Table VI, read-out: ID-50 R-1): 0.3 µg/mL
2 | CC(=O)OC/C=C/c1c(COC(C)=O)c2c(n1C)C(=O)C=C(N1CC1)C2=O [E.O. 4, 3-Acetoxymethyl-5-aziridino-1-methyl-2-[1H-indole-4,7-dione]prop-β-en-α-yl acetate] | - | - |  | + |  |  |  |  |  |  |  |  | active | activity at 0.001 µg/mL (lung-NSCLC tumour line; [7]): 64%; activity at 0.01 µg/mL (lung-NSCLC tumour line; [7]): 8%; activity at 0.1 µg/mL (lung-NSCLC tumour line; [7]): 0%; IC50 (L1210 cells [2]): < 1 µg/mL; IC50 ([3]; read-out: ID-50 R-1, Table VIII): 0.025 µg/mL; minimal effective concentration (L1210 cells [4]; L1210, read-out: LAD 1 (lowest active dose)): 0.032 to 0.064 µg/mL; minimal effective concentration (L1210 cells [4]; L1210, read-out: LAD 2 (lowest active dose)): 0.064 µg/mL
3 | Cn1c(/C=C/CO)c(CO)c2c1C(=O)C=C(N1CC1)C2=O [E.O. 9, 5-Aziridino-3-hydroxymethyl-1-methyl-2-[1H-indole-4,7-dione]prop-β-en-α-ol] | - | + | + | + | -370 | 0 | 0 | 0 | 0.8 (≈ 2.77 µM) | 0.003 (≈ 0.0104 µM) | 1.02 | 0.512 to 1.02 | active | half-wave potential E1.2, wave II ([1]; pH = 8 vs Ag/AgCl): -785 mV; IC50 ([3]; Table VIII, read-out: ID-50 R-1): 0.0034 µg/mL (≈ 0.0118 µM)
4 | COC(=O)OC/C=C/c1c(COC(=O)OC)c2c(n1C)C(=O)C=C(OC)C2=O [E.O. 2, Methyl 5-methoxy-3-methoxycarbonyloxymethyl-1-methyl-2-[1H-indole-4,7 dione]prop-β-en-α-yl carbonate] | - | - | - | + |  |  |  |  | 3.7 (≈ 9.41 µM) | 0.4 (≈ 1.02 µM) | 1.02 to 2.05 | 1.02 to 2.05 |  | 
